From PMC3034772 (Pharmaceutical research, 2010)
“And” between values parts separate entries of the source, which are not always exact repeats. Identical values can stand only once. Like-named read-outs stand apart in the source and are kept apart here.

What was measured:
[1] = Charge class Q, dominant calculated charge state at pH 7.4; assay type: physicochemical
[2] = physchem
[3] = In combo PAMPA-BBB model, calculated log Po in situ
[4] = PAMPA; for Pm^7.4: pH 7.4
[5] = PAMPA; for Pm^7.4: pH 7.4; remark: listed apart in the source
[6] = dominant calculated concentration fraction of the drug in a charge state
[7] = difference observed minus calculated, external set, no efflux inhibition

| Compound | Q (charge class) [1, 6] | log Po [4] | log Ppara [4] | Pm^7.4 [4] | log PABL [4] | also measured |
| --- | --- | --- | --- | --- | --- | --- |
| COc1cc2c(c(OC)c1OC)-c1ccc(OC)c(=O)cc1[C@@H](NC(C)=O)CC2 [Colchicine] |  |  |  |  |  | Q (charge class) [1]: 0 |
| COc1ccc2c3c1O[C@H]1C(=O)CC[C@@]4(O)[C@@H](C2)N(C)CC[C@]314 [Oxycodone] |  |  |  |  |  | pKa [2]: 9; Q (charge class) [1]: + |
| CC(=O)O[C@H]1C(=O)[C@@]2(C)[C@H]([C@H](OC(=O)c3ccccc3)[C@]3(O)C[C@H](OC(=O)[C@H](O)[C@@H](NC(=O)c4ccccc4)c4ccccc4)C(C)=C1C3(C)C)[C@]1(OC(C)=O)CO[C@@H]1C[C@@H]2O [Paclitaxel] | 0 |  |  |  |  | obs–calc (log Po^in situ) [3, 7]: −1.9 |
| COc1ccc([C@@H]2Sc3ccccc3N(CCN(C)C)C(=O)[C@@H]2OC(C)=O)cc1 [Diltiazem] | + |  |  |  |  |  |
| CN(C)CCC=C1c2ccccc2CCc2ccccc21 [Amitriptyline] | + | −1.27 | −6.38 | 435 |  | obs–calc (log Po^in situ) ([3]; efflux inhibition mdr1a(−/−)): 0.1; obs–calc (log Po^in situ) ([3]; no efflux inhibition): −0.3 and −0.2 |
| C=C[C@H]1C[N@@]2CC[C@H]1C[C@H]2[C@H](O)c1ccnc2ccc(OC)cc12 [Quinine] | + |  |  |  |  |  |
| Clc1ccc2c(c1)C(N1CCNCC1)=Nc1ccccc1O2 [Amoxapine] | + | −2.37 | −5.98 | 289 | −3.26 | obs–calc (log Po^in situ) ([3]; no efflux inhibition): −0.4 |
| CN1CCN(CCCN2c3ccccc3Sc3ccc(C(F)(F)F)cc32)CC1 [Trifluoperazine] | + | −1.96 | −5.94 | 1442 | −3.32 | pKa [2]: 8.22; obs–calc (log Po^in situ) [3, 7]: −1.1 |
| CCCCNC(=O)NS(=O)(=O)c1ccc(C)cc1 [Tolbutamide] | − |  |  |  |  |  |
| COc1ccc(Cl)cc1C(=O)NCCc1ccc(S(=O)(=O)NC(=O)NC2CCCCC2)cc1 [Glibenclamide] | − |  |  |  |  | Pm^7.4 [5]: 15 |
| COc1ccc2c(c1)c(CC(=O)O)c(C)n2C(=O)c1ccc(Cl)cc1 [Indomethacin] | − | −2.67 | −5.68 | 3 | −2.67 |  |
| NNCCc1ccccc1 [Phenelzine] | + | −2.20 | −6.86 | 2236 | −4.58 | pKa [2]: 7.66; obs–calc (log Po^in situ) [3, 7]: −1.9 |
| CN[C@H]1CC[C@@H](c2ccc(Cl)c(Cl)c2)c2ccccc21 [Sertraline] | + |  |  |  |  | pKa [2]: 9.2 |
| CCCN1C[C@H](CSC)C[C@@H]2c3cccc4[nH]cc(c34)C[C@H]21 [Pergolide] | + | −1.45 | −6.20 | 315 | −3.25 | pKa [2]: 9.45; obs–calc (log Po^in situ) ([3]; no efflux inhibition): 0.4 |
| CN1CC[C@]23c4c5ccc(O)c4O[C@H]2[C@@H](O)C=C[C@H]3[C@H]1C5 [Morphine] |  |  |  |  |  | Q (charge class) [1]: + |
| COc1ccc2cc([C@H](C)C(=O)O)ccc2c1 [Naproxen] | − |  |  |  |  |  |
| C[C@]12CC[C@H]3[C@@H](CCC4=CC(=O)CC[C@@]43C)[C@@H]1CC[C@@H]2O [Testosterone] |  |  |  |  |  | Q (charge class) [1]: 0 |
| CCN(CC)CC(=O)Nc1c(C)cccc1C [Lidocaine] | + |  |  |  |  |  |
| CC(NC(C)(C)C)C(=O)c1cccc(Cl)c1 (stereo not shown) [Bupropion] | + |  |  | 101 |  | obs–calc (log Po^in situ) ([3]; no efflux inhibition): 0.9 |
| CC(C)NCC(O)COc1cccc2ccccc12 (stereo not shown) [Propranolol] | + |  |  | 87 |  |  |
| [D-Pen^2,5]-Enkephalin [DPDPE] |  |  |  |  |  | Q (charge class) [1]: ± |
| Nc1nnc(-c2cccc(Cl)c2Cl)c(N)n1 [Lamotrigine] |  |  |  |  |  | pKa [2]: 5.38 |
| CN1CCN2c3ncccc3Cc3ccccc3C2C1 (stereo not shown) [Mirtazapine] | 0 | −2.61 | −5.87 | 579 | −3.37 | pKa [2]: 7.91; obs–calc (log Po^in situ) ([3]; no efflux inhibition): −0.2 |
| CNCC[C@@H](Oc1ccccc1C)c1ccccc1 [Atomoxetine] | + | −1.83 | −6.10 |  | −3.01 | pKa [2]: 9.67; obs–calc (log Po^in situ) ([3]; no efflux inhibition): 0.5 |
| CN(C)CCCC1(c2ccc(F)cc2)OCc2cc(C#N)ccc21 (stereo not shown) [Citalopram] | + |  |  | 99 |  |  |
| C[C@]12C[C@H](O)[C@H]3[C@@H](CCC4=CC(=O)CC[C@@]43C)[C@@H]1CC[C@@H]2C(=O)CO [Corticosterone] | 0 |  |  |  |  |  |

| Compound | Q (charge class) [1, 6] | log Po [4] | log Ppara [4] | Pm^7.4 [4] | log PABL [4] | also measured |
| --- | --- | --- | --- | --- | --- | --- |
| CC(C)(C)NC(=O)[C@@H]1C[C@@H]2CCCC[C@@H]2CN1C[C@@H](O)[C@H](Cc1ccccc1)NC(=O)[C@H](CC(N)=O)NC(=O)c1ccc2ccccc2n1 [Saquinavir] | 0 |  |  |  |  | log Po [5]: −3.82; Pm^7.4 [5]: 114; obs–calc (log Po^in situ) [3, 7]: −0.1; obs–calc (log Po^in situ) ([3]; efflux inhibition mdr1a(−/−)): 0.5 |
| CN1CCN(C2=Nc3ccccc3Oc3ccc(Cl)cc32)CC1 [Loxapine] |  |  |  | 829 |  | pKa [2]: 7.78 |
| CC[C@H](C)C(=O)O[C@H]1C[C@@H](C)C=C2C=C[C@H](C)[C@H](CC[C@@H](O)C[C@@H](O)CC(=O)O)[C@H]21 [Lovastatin Acid] | − |  |  |  |  |  |
| CNCCCC12CCC(c3ccccc31)c1ccccc12 [Maprotiline] | + | −0.56 | −5.51 | 311 | −3.21 | obs–calc (log Po^in situ) ([3]; no efflux inhibition): 0.2 |
| CN1C(=O)CN=C(c2ccccc2)c2cc(Cl)ccc21 [Diazepam] |  |  |  |  |  | Q (charge class) [1]: 0 |
| NC(=O)N1c2ccccc2C=Cc2ccccc21 [Carbamazepine] | 0 |  | −6.09 | 29 | −3.25 | obs–calc (log Po^in situ) ([3]; efflux inhibition mdr1a(−/−)): 0.6 |
| CN(C)CCOC(c1ccccc1)c1ccccc1 [Diphenhydramine] | + |  |  |  |  |  |
| Cn1c(=O)c2c(ncn2C)n(C)c1=O [Caffeine] | 0 |  |  | 1 |  |  |
| OCCN(CCO)c1nc(N2CCCCC2)c2nc(N(CCO)CCO)nc(N3CCCCC3)c2n1 [Dipyridamole] | 0 |  |  |  |  |  |
| CC(C)(C(=O)O)c1ccc(C(O)CCCN2CCC(C(O)(c3ccccc3)c3ccccc3)CC2)cc1 (stereo not shown) [Fexofenadine] | ± |  |  |  |  |  |
| CC(C)Cc1ccc(C(C)C(=O)O)cc1 (stereo not shown) [Ibuprofen] | − |  |  |  |  |  |
| Cc1nc2n(c(=O)c1CCN1CCC(c3noc4cc(F)ccc34)CC1)CCCC2 [Risperidone] |  |  |  |  |  | Q (charge class) [1]: +; obs–calc (log Po^in situ) [3]: 0.8 |
| O=C1NC(=O)C(c2ccccc2)(c2ccccc2)N1 [Phenytoin] | 0 | −4.34 | −6.93 | 41 | −4.51 | obs–calc (log Po^in situ) ([3]; efflux inhibition mdr1a(−/−)): −0.3; obs–calc (log Po^in situ) ([3]; no efflux inhibition): −0.4 and −0.3 and −0.2 |
| CN1CCN(C2=Nc3cc(Cl)ccc3Nc3ccccc32)CC1 [Clozapine] | + | −2.58 | −5.74 | 632 | −3.37 | obs–calc (log Po^in situ) ([3]; efflux inhibition mdr1a(−/−)): −0.5 |
| CCN(CC)CCNC(=O)c1cc(Cl)c(N)cc1OC [Metoclopramide] | + |  |  | 380 |  |  |
| CN(C)CCCN1c2ccccc2Sc2ccc(Cl)cc21 [Chlorpromazine] | + | −1.46 | −5.96 | 496 | −3.10 | obs–calc (log Po^in situ) ([3]; efflux inhibition mdr1a(−/−)): 0.2; obs–calc (log Po^in situ) ([3]; no efflux inhibition): 0.0 and 0.2 |
| OCCN1CCN(CCCN2c3ccccc3Sc3ccc(Cl)cc32)CC1 [Perphenazine] | + | −1.66 | −5.64 | 1612 | −3.42 | obs–calc (log Po^in situ) [3, 7]: −0.9 |
| Cc1cc(=O)n(-c2ccccc2)n1C [Antipyrine] |  | −6.14 | −6.86 |  | −4.46 | Q (charge class) [1]: 0 |
| O=C(O)COCCN1CCN(C(c2ccccc2)c2ccc(Cl)cc2)CC1 (stereo not shown) [Cetirizine] | ± |  |  |  |  |  |
| Cn1c(=O)c2[nH]cnc2n(C)c1=O [Theophylline] |  |  |  |  |  | Q (charge class) [1]: 0 |
| CC(=O)[C@H]1CC[C@H]2[C@@H]3CCC4=CC(=O)CC[C@]4(C)[C@H]3CC[C@]12C [Progesterone] | 0 | −3.58 | −6.20 | 263 | −3.25 | obs–calc (log Po^in situ) [3, 7]: −0.6 |
| C[C@]12CCC(=O)C=C1CC[C@@H]1[C@@H]2[C@@H](O)C[C@@]2(C)[C@H]1CC[C@]2(O)C(=O)CO [Hydrocortisone] | 0 |  |  |  |  |  |
| C[C@H]1O[C@@H](O[C@H]2[C@@H](O)C[C@H](O[C@H]3[C@@H](O)C[C@H](O[C@H]4CC[C@@]5(C)[C@H](CC[C@@H]6[C@@H]5C[C@@H](O)[C@]5(C)[C@@H](C7=CC(=O)OC7)CC[C@]65O)C4)O[C@@H]3C)O[C@@H]2C)C[C@H](O)[C@@H]1O [Digoxin] |  |  |  |  |  | Q (charge class) [1]: 0 |
| O=C(CCCN1CCC(O)(c2ccc(Cl)cc2)CC1)c1ccc(F)cc1 [Haloperidol] | + | −2.06 | −4.68 | 464 | −3.38 | obs–calc (log Po^in situ) ([3]; no efflux inhibition): −0.3 |
| Cn1cnc2c1c(=O)[nH]c(=O)n2C [Theobromine] | 0 | −8.00 | −6.94 | 0.01 | −4.45 | obs–calc (log Po^in situ) [3, 7]: 1.1 |
| COc1cc([C@@H]2c3cc4c(cc3[C@@H](O[C@@H]3O[C@@H]5CO[C@@H](C)O[C@H]5[C@H](O)[C@H]3O)[C@H]3COC(=O)[C@H]23)OCO4)cc(OC)c1O [Etoposide] | 0 | −6.17 | −6.85 | 0.6 | −4.62 | obs–calc (log Po^in situ) ([3]; efflux inhibition mdr1a(−/−)): 0.1; obs–calc (log Po^in situ) ([3]; no efflux inhibition): −0.1 |
